Results on 8 compounds are retold here after patent publication US4849429A, “Certain 1,4-dihydro-2,6-dilower-alkyl-4-(mono-substituted pyridyl) useful for treating coronary artery or cerebral artery disease” (The Green Cross Corporation, priority 1985, dated 1989).

Each structure is given as a SMILES string. Where a name gives a salt, the structure may show the parent alone. Read-outs that look alike come from different tables or passages of the source.

The nature of test [1]: Test 1: blood pressure depression effect, systolic pressure, indirect tail-cuff method, oral. The class given is in vivo, Male, spontaneously hypertension-developing rats. The following applies: for Systolic blood pressure (mmHg) After 1 hr / Systolic blood pressure (mmHg) After 4 hrs / Systolic blood pressure (mmHg) After 7 hrs: 25 mg/kg oral, average value; for Systolic blood pressure (mmHg) After 1 hr: 1 hr after administration; for Systolic blood pressure (mmHg) After 4 hrs: 4 hrs after administration; for Systolic blood pressure (mmHg) After 7 hrs: 7 hrs after administration. As to the method: Blood pressure depression effect
(§1) Male, spontaneously hypertension-developing rats of ages of 10 to 11 weeks (in groups of 3 to 5 animals) were used in the test. For blood pressure determination, systolic pressure was measured without anesthesia by an indirect tail-cuff method using a sphygmomanometer (PE-300, Narco Bio-System).
The compound to be tested was orally administered (at a dose of 25 mg/kg in terms of the active compound) as a 10% HCO-60 (polyoxyethylene hardened castor oil) suspension. Blood pressure was determined 1, 4 and 7 hours after the administration.
Further, the blood pressure depression effect of the fumarate of the compound obtained in Example 28 described later was examined in the same manner as described above.

A short description of test [2]: Test 2: blood pressure depression up to 24 hours and duration until 50% recovery, oral. In kind it is in vivo, Male, spontaneously hypertension-developing rats. The following applies: for response vs control in vivo at 25 mg/kg: Rattus norvegicus, percent based on that before administration (100); for Duration 50% recovery: duration until pressure recovered to 50% from the maximum depression value. As to the method:
as §1

The mark [3] stands for this setting: 1h after oral administration, read-out: Depression value (%) of blood pressure, 1h.
Where [4] appears, read: 2h after oral administration, read-out: Depression value (%) of blood pressure, 2h.
Where [5] appears, read: 4h after oral administration, read-out: Depression value (%) of blood pressure, 4h.
Where [6] appears, read: 7h after oral administration, read-out: Depression value (%) of blood pressure, 7h.
Where [7] appears, read: 24h after oral administration, read-out: Depression value (%) of blood pressure, 24h.
[8] abbreviates: maximum lowering, read-out: Depression value (%) of blood pressure, Max.

Consider `COC(=O)C1=C(C)NC(C)=C(C(=O)OCCN(C)Cc2ccccc2)C1c1cccnc1C(F)(F)F` (centres unmarked) [Example 28 fumarate], for which the “time required for 50% recovery from maximum depression value (%) of blood pressure” value in test [1] (same manner as Test 1, oral) stood at 16.2 h. Moreover, the “maximum depression value (%) of blood pressure from the value (100%) before administration” value in test [1] (same manner as Test 1, oral, before administration = 100%) stood at 67%.

`COC(=O)C1=C(C)NC(C)=C(C(=O)OCCN(C)Cc2ccccc2)C1c1cccc(C#N)n1` (stereo not drawn) [Example 1, 2,6-Dimethyl-4-(6-cyano-2-pyridyl)-1,4-dihydropyridine-3,5-dicarboxylicacid 3-β-(N-benzyl-N-methylamino)ethyl ester 5-methyl ester]: the “Systolic blood pressure (mmHg) After 1 hr” value in test [1] stood at 115 mmHg. Also, the “Systolic blood pressure (mmHg) After 4 hrs” value in test [1] came to 137 mmHg. In test [1], the “Systolic blood pressure (mmHg) After 7 hrs” value is 148 mmHg. Also, the response vs control in vivo at 25 mg/kg in test [2] (setting [3]) turned out to be 69%; in test [2] (setting [4]) it was 74%; in test [2] (setting [5]) it was 84%; in test [2] (setting [6]), 88%; in test [2] (setting [7]), 98%; in test [2] (setting [8]) it was 69%. Besides, the “Duration 50% recovery” value in test [2] came out at 4.4 h.

Take `COC(=O)C1=C(C)NC(C)=C(C(=O)OCCN(C)Cc2ccccc2)C1c1cc([N+](=O)[O-])ccn1` (stereo not drawn) [Example 5, 2,6-Dimethyl-4-(4-nitro-2-pyridyl)-1,4-dihydropyridine-3,5-dicarboxylic acid 3-β-(N-benzyl-N-methylamino)ethyl ester 5-methyl ester]: in test [1], the “Systolic blood pressure (mmHg) After 1 hr” value is reported as 156 mmHg. For the same compound, the “Systolic blood pressure (mmHg) After 4 hrs” value in test [1] turned out to be 135 mmHg. The “Systolic blood pressure (mmHg) After 7 hrs” value in test [1] is 140 mmHg. In addition, the response vs control in vivo at 25 mg/kg in test [2] (setting [3]) stood at 67%; in test [2] (setting [4]) it was 82%; in test [2] (setting [5]) it was 93%; in test [2] (setting [6]), 90%; in test [2] (setting [7]) it was 104%; in test [2] (setting [8]) it was 67%. Also, the “Duration 50% recovery” value in test [2] amounted to 2.3 h.

For the compound `COC(=O)C1=C(C)NC(C)=C(C(=O)OCCN(C)Cc2ccccc2)C1c1ccnc(C(F)(F)F)c1` (stereo not drawn) [Example 6, 2,6-Dimethyl-4-(2-trifluoromethyl-4-pyridyl)-1,4-dihydropyridine-3,5-dicarboxylic acid 3-β-(N-benzyl-N-methylamino)ethyl ester 5-methyl ester], in test [1], the “Systolic blood pressure (mmHg) After 1 hr” value came to 139 mmHg, the “Systolic blood pressure (mmHg) After 4 hrs” value was 145 mmHg and the “Systolic blood pressure (mmHg) After 7 hrs” value is listed as 145 mmHg.

Take `COC(=O)C1=C(C)NC(C)=C(C(=O)OCCN(C)Cc2ccccc2)C1c1ncccc1[N+](=O)[O-]` (stereo not drawn) [(1), 2,6-Dimethyl-4-(3-nitro-2-pyridyl)-1,4-dihydropyridine-3,5-dicarboxylicacid 3-β-(N-benzyl-N-methylamino)ethyl ester 5-methyl ester]: the response vs control in vivo at 25 mg/kg in test [2] (setting [3]) amounted to 65%; in test [2] (setting [4]) it was 68%; in test [2] (setting [5]), 76%; in test [2] (setting [6]) it was 81%; in test [2] (setting [7]) it was 96%; in test [2] (setting [8]) it was 65%. Besides, the “Duration 50% recovery” value in test [2] stood at 8.7 h.

Turning to `COC(=O)C1=C(C)NC(C)=C(C(=O)OCCN(C)Cc2ccccc2)C1c1cc(C#N)ccn1` (stereo not drawn) [(3), 2,6-Dimethyl-4-(4-cyano-2-pyridyl)-1,4-dihydropyridyne-3,5-dicarboxylicacid 3-β-(N-benzyl-N-methylamino)ethyl ester 5-methyl ester], the response vs control in vivo at 25 mg/kg in test [2] (setting [3]) turned out to be 61%; in test [2] (setting [4]), 66%; in test [2] (setting [5]) it was 74%; in test [2] (setting [6]) it was 82%; in test [2] (setting [7]), 95%; in test [2] (setting [8]), 61%. In test [2], the “Duration 50% recovery” value amounted to 7.0 h.

Turning to `COC(=O)C1=C(C)NC(C)=C(C(=O)OCCN(C)Cc2ccccc2)C1c1cccc(Br)n1` (stereo not drawn) [Example 3, 2,6-Dimethyl-4-(6-bromo-2-pyridyl)-1,4-dihydropyridine-3,5-dicarboxylicacid 3-β-(N-benzyl-methylamino)ethyl ester 5-methyl ester], in test [1], the “Systolic blood pressure (mmHg) After 1 hr” value came to 126 mmHg. The “Systolic blood pressure (mmHg) After 4 hrs” value in test [1] stood at 143 mmHg. Besides, the “Systolic blood pressure (mmHg) After 7 hrs” value in test [1] is listed as 161 mmHg. Further, the response vs control in vivo at 25 mg/kg in test [2] (setting [3]) was 63%; in test [2] (setting [4]), 72%; in test [2] (setting [5]), 86%; in test [2] (setting [6]), 83%; in test [2] (setting [7]), 99%; in test [2] (setting [8]) it was 63%. Moreover, in test [2], the “Duration 50% recovery” value amounted to 3.5 h.

With `COC(=O)C1=C(C)NC(C)=C(C(=O)OCCN(C)Cc2ccccc2)C1c1ccnc(F)c1` (stereo not drawn) [(16), 2,6-Dimethyl-4-(2-fluoro-4-pyridyl)-1,4-dihydropyridine-3,5-dicarboxylic acid 3-β-(N-benzyl-N-methylamino)ethyl ester 5-methyl ester], the response vs control in vivo at 25 mg/kg in test [2] (setting [3]) turned out to be 92%; in test [2] (setting [4]), 94%; in test [2] (setting [5]), 95%; in test [2] (setting [6]), 98%; in test [2] (setting [7]) it was 96%; in test [2] (setting [8]), 92%. The “Duration 50% recovery” value in test [2] is recorded as 5.5 h.
